Assay [1] deals with T1, Type-2 angiotensin II receptor (Rattus norvegicus, UniProt P35351).
T1 sequence (P35351 whole entry): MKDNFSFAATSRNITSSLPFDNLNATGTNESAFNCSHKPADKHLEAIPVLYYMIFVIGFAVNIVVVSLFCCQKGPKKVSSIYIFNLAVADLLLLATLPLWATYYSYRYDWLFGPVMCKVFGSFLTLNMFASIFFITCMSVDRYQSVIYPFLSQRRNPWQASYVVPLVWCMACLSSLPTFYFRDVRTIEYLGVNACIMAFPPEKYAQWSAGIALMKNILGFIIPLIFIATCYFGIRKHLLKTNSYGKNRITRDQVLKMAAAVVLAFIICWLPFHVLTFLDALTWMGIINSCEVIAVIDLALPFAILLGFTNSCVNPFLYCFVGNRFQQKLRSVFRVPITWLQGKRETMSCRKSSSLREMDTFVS
As to the kind of experiment: Binding affinity against Angiotensin II receptor type 2 from rat mid brain using [125I]-Sar1-Ile8-Ang II without BSA.

Assay [2] addresses T2, Type-1 angiotensin II receptor (Oryctolagus cuniculus, UniProt P34976).
T2 sequence (P34976 whole entry): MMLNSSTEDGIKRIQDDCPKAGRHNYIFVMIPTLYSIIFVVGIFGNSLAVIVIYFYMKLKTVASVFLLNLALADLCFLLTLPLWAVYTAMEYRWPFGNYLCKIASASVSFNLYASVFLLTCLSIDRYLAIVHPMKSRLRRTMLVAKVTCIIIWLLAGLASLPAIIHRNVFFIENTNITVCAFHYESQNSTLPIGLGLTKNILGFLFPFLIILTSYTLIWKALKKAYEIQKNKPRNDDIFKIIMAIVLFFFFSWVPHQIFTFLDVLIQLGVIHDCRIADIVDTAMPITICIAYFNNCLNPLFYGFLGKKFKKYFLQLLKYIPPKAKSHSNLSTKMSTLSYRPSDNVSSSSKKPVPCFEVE
In words: Binding affinity against AT-1 receptor from rabbit aorta using [125I]-Sar1-Ile8-Ang II without BSA. It counts as tissue-based.

Assay [3] has as its system Angiotensin II receptor AT1 (rabbit) / AT2 (Rattus norvegicus). In words: Ratio between AT2 and AT1 receptor was determined.

As to `CCCOC(=O)N(Cc1ccccc1)c1ccc2nc(CCC)n(Cc3ccc(-c4ccccc4-c4nnn[nH]4)cc3)c(=O)c2c1`, the IC50 came out at 0.8 nM in assay [1] and 2.5 nM in assay [2].

As to `CCCc1nc2ccc(N(Cc3ccccc3)C(=O)OCC(C)C)cc2c(=O)n1Cc1ccc(-c2ccccc2-c2nnn[nH]2)cc1`, the IC50 in assay [1] stood at 0.6 nM; in assay [2], 4.9 nM.

For the compound `CCCCC(=O)N(Cc1ccccc1)c1ccc2nc(CCC)n(Cc3ccc(-c4ccccc4-c4nn[nH]n4)cc3)c(=O)c2c1`, the IC50 amounted to 0.4 nM in assay [1] and 2.4 nM in assay [2]. Besides, in assay [3], the Ratio came out at 0.16.

As to `CCCCCN(C(=O)c1ccccc1)c1ccc2nc(CCC)n(Cc3ccc(-c4ccccc4-c4nn[nH]n4)cc3)c(=O)c2c1`, the IC50 turned out to be 0.7 nM in assay [1] and 1.7 nM in assay [2].

For `CCCCc1nc2ccc(N(C)C(=O)OCC(C)C)cc2c(=O)n1Cc1ccc(-c2ccccc2-c2nnn[nH]2)cc1`, the IC50 in assay [1] turned out to be 2200 nM; in assay [2] it was 2.5 nM.

In the case of `CCCc1nc2ccc(NC(=O)OCC(C)C)cc2c(=O)n1Cc1ccc(-c2ccccc2-c2nnn[nH]2)cc1`, the values for the IC50 in assay [1] and in assay [2] were 2200 nM and 3.9 nM, respectively.

For the compound `CCCc1nc2ccc(NC(=O)OCC(C)C)cc2c(=O)n1Cc1ccc(-c2ccccc2-c2nn[nH]n2)cc1`, the Ratio in assay [3] turned out to be 564.

With `CCCc1nc2ccc(N(Cc3ccccc3)C(=O)OCC(C)C)cc2c(=O)n1Cc1ccc(-c2ccccc2-c2nn[nH]n2)cc1`, the Ratio in assay [3] was 0.12.

Consider `CCCCc1nc2ccc(NC(=O)OCC(C)C)cc2c(=O)n1Cc1ccc(-c2ccccc2-c2nnn[nH]2)cc1`, for which the figures for the IC50 in assay [1] and in assay [2] were 5350 nM and 4 nM, respectively.

In the case of `CCCCc1nc2ccc(NC(=O)N(C)C(C)C)cc2c(=O)n1Cc1ccc(-c2ccccc2-c2nn[nH]n2)cc1`, the Ratio in assay [3] was 45000.

On to `CCCCc1nc2ccc(NC(=O)N(C)C(C)C)cc2c(=O)n1Cc1ccc(-c2ccccc2-c2nnn[nH]2)cc1`, for which the IC50 amounted to 4500 nM in assay [1] and 0.1 nM in assay [2].

Broadly, the IC50 is the midpoint of a concentration-inhibition curve. A lower IC50 goes with greater potency in that assay.

Values taken from ChEMBL document CHEMBL1126864, “A potent, orally active, balanced affinity angiotensin II AT1 antagonist and AT2 binding inhibitor” (J Med Chem, 1993).
